Laboratory results published in US7199143B2, “Chemical compounds” (AstraZeneca AB, priority 2002, dated 2007).
≈ marks a conversion by molar mass, not a printed value.

Assays:
[1] = tested on: Staphylococcus aureus MRQR (methicillin resistant and quinolone resistant); test: MIC, agar-dilution, staphylococci; format: cell-based; conditions: 10^4 CFU/spot, 37° C., 24 hours
Protocol: (§1) The following results were obtained on a standard in-vitro test system. The activity is described in terms of the minimum inhibitory concentration (MIC) determined by the agar-dilution technique with an inoculum size of 10^4 CFU/spot. Typically, compounds are active in the range 0.01 to 256 μg/ml.
(§2) Staphylococci were tested on agar, using an inoculum of 10^4 CFU/spot and an incubation temperature of 37° C. for 24 hours—standard test conditions for the expression of methicillin resistance.

[2] = tested on: Staphylococcus aureus MSQS (methicillin sensitive and quinolone sensitive); test: MIC, agar-dilution, staphylococci; format: cell-based; conditions: 10^4 CFU/spot, 37° C., 24 hours
Protocol: as §1, §2

Streptococcus pneumoniae = test: MIC, agar with 5% defibrinated horse blood; format: cell-based; conditions: agar + 5% horse blood, 5% carbon dioxide, 48 hours
Protocol: as §1
(§3) Streptococci and enterococci were tested on agar supplemented with 5% defibrinated horse blood, an inoculum of 10^4 CFU/spot and an incubation temperature of 37° C. in an atmosphere of 5% carbon dioxide for 48 hours—blood is required for the growth of some of the test organisms. Fastidious Gram negative organisms were tested in Mueller-Hinton broth, supplemented with hemin and NAD, grown aerobically for 24 hours at 37° C., and with an innoculum of 5×10^4 CFU/well.

Streptococcus pyogenes = test: MIC, agar with 5% defibrinated horse blood; format: cell-based; conditions: agar + 5% horse blood, 5% carbon dioxide, 48 hours
Protocol: as §1, §3

Haemophilus influenzae = test: MIC, fastidious Gram negative organisms, Mueller-Hinton broth; format: cell-based; conditions: Mueller-Hinton broth with hemin and NAD, 24 hours, 5×10^4 CFU/well
Protocol: as §1, §3

Moraxella catarrhalis = test: as above; format: cell-based; conditions: Mueller-Hinton broth with hemin and NAD, 24 hours, 5×10^4 CFU/well
Protocol: as §1, §3

MAO-A = target: T1, MAO-A (Homo sapiens, UniProt P21397); test: MAO-A standard in-vitro assay, human liver enzyme expressed in yeast; format: biochemical
T1 construct: made in house; host or cells: yeast
T1 sequence (P21397 1-527): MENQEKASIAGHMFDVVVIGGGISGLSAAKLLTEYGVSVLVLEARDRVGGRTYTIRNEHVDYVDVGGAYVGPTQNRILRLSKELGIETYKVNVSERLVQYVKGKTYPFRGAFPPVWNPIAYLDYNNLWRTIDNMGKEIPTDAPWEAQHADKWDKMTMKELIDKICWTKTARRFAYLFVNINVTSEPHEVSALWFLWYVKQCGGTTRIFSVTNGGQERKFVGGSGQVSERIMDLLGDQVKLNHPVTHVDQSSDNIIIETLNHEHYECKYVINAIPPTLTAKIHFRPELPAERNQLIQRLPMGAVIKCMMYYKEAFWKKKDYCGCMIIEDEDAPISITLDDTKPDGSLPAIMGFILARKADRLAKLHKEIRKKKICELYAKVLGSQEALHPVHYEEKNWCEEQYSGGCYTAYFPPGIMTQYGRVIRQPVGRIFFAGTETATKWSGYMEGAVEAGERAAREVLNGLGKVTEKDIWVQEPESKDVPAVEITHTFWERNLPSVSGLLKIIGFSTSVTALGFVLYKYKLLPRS
Protocol: The activity of the compounds of the invention against MAO-A was tested using a standard in-vitro assay based on human liver enzyme expressed in yeast as described in Biochem. Biophys. Res. Commun. 1991, 181, 1084–1088.

MIC [1]: 8 µg/mL (≈ 18.5 µM)
MIC [2]: 4 µg/mL (≈ 9.27 µM)
MIC (Streptococcus pneumoniae): 2 µg/mL
MIC (Streptococcus pyogenes): 2 µg/mL
MIC (Haemophilus influenzae): 2 µg/mL (≈ 4.64 µM)
MIC (Moraxella catarrhalis): 4 µg/mL (≈ 9.27 µM)
Ki (MAO-A): > 410 µM
SMILES: [N-]=[N+]=NCc1cn(C[C@H]2CN(c3ccc(C4=CC[S+]([O-])CC4)c(F)c3)C(=O)O2)nn1 (stereo partly drawn) [Example 3, (5R)-3-[4-(1(R,S)-Oxo-3,6-dihydro-2H-thiopyran-4-yl)-3-fluorophenyl]-5-[(4-azidomethyl)-1,2,3-triazol-1-ylmethyl]oxazolidin-2-one]
